Counter-ions that a name gives are not always drawn.

The target in one test is V1 Receptor (Rattus norvegicus, UniProt P30560). The experiment in a line: V1 Receptor Binding Assay ([3H]-Arg-vasopressin, rat liver plasma membrane). The note with it: 37° C., 10 minutes, pH 8.0.
Sequence of V1 Receptor (P30560 whole entry): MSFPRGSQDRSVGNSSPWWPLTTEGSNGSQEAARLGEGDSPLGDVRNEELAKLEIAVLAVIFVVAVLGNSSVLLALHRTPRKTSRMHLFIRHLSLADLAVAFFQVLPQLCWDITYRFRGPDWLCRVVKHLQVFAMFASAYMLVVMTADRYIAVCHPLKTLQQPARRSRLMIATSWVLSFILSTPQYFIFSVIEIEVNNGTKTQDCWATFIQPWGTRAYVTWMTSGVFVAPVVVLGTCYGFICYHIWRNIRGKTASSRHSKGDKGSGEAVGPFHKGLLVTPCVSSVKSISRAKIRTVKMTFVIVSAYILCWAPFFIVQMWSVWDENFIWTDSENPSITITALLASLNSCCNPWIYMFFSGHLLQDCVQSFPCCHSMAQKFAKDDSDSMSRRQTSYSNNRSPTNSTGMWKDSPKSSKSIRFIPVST
Protocol: After incubation, the mixture is filtered three times using the glass filter (GF/F) so as to separate the membrane preparation combining with vasopressin and then washed with the buffer (5 ml). This glass filter is taken out and mixed with liquid scintillation cocktail. The amount of [^3 H]-vasopressin combining with the membrane is measured by liquid scintillation counter and the rate of the inhibitory effect of the test compound is estimated according to the following equation.
(§1) C1 : The amount of [^3 H]-vasopressin combining with the membrane in the presence of the test compound of a known amount.
(§2) C0 : The amount of [^3 H]-vasopressin combining with the membrane in the absence of the test compound.
B1 : The amount of [^3 H]-vasopressin combining with the membrane in the presence of the excess amount of vasopressin (10^-6 M).
(§3) The results are expressed as IC50 value, which is the concentration of the test compound required to achieve the inhibitory effect in the rate of 50%.
For the molecule `CN(C)C1CCCN(C(=O)c2ccc(NC(=O)Cc3c(Cl)cccc3Cl)cc2)c2ccccc21` (stereo not shown) [Test Compound 6, 5-Dimethylamino-1-{4-[2-(2,6-dichlorophenyl)acetylamino]benzoyl}-2,3,4,5-tetrahydro-1H-benzazepine], the IC50 came out at 120 nM. On the same count and under the same terms, then `Cc1ccccc1CC(=O)Nc1ccc(C(=O)N2CCCC(O)c3cc(Cl)ccc32)c(C)c1` (stereo not shown) [Test Compound 16, 5-Hydroxy-7-chloro-1-{2-methyl-4-[2-(2-methylphenyl)acetylamino]benzoyl}-2,3,4,5-tetrahydro-1H-benzazepine], with 320 nM; and `CSCC[C@H](N)C(=O)OC1CCCN(C(=O)c2ccc(NC(=O)c3ccccc3C)cc2C)c2ccc(Cl)cc21` (single isomer, unassigned) [Test Compound 14, 5-(L-Methionyloxy)-7-chloro-1-[2-methyl-4-(2-methylbenzoylamino)benzoyl]-2,3,4,5-tetrahydro-1H-benzazepine hydrochloride], with 220 nM; and `COc1cc(NC(=O)Cc2ccccc2C)ccc1C(=O)N1CCCC(O)c2cc(Cl)ccc21` (stereo not shown) [Test Compound 18, 5-Hydroxy-7-chloro-1-{2-methoxy-4-[2-(2-methylphenyl)acetylamino]benzoyl}-2,3,4,5-tetrahydro-1H-benzazepine], with 55 nM. The molecule `COc1cc(NC(=O)c2ccccc2C)ccc1C(=O)N1CCCC(OCCN2CCCC2)c2cc(Cl)ccc21` (stereo not shown) [Test Compound 34, 5-[2-(1-Pyrrolidinyl)ethoxy]-7-chloro-1-[2-methoxy-4-(2-methylbenzoylamino)benzoyl]-2,3,4,5-tetrahydro-1H-benzazepine hydrochloride] showed an IC50 of 9 nM. As to `COc1cc(C(=O)N2CCCCc3cc(Cl)ccc32)ccc1NC(=O)c1ccccc1OCCCCN1CCN(C(C)=O)CC1` [Test Compound 56, 7-Chloro-1-[3-methoxy-4-{2-[4-(4-acetyl-1-piperazinyl)butoxy]benzoylamino}benzoyl]-2,3,4,5-tetrahydro-1H-benzazepine], the IC50 amounted to 7 nM.

For a further test, the target named is T1, V2 Receptor (Rattus norvegicus, UniProt Q00788).
T1 construct: rat kidney plasma membrane preparations; from tissue; host or cells: rat kidney plasma membranes
T1 sequence (Q00788 whole entry): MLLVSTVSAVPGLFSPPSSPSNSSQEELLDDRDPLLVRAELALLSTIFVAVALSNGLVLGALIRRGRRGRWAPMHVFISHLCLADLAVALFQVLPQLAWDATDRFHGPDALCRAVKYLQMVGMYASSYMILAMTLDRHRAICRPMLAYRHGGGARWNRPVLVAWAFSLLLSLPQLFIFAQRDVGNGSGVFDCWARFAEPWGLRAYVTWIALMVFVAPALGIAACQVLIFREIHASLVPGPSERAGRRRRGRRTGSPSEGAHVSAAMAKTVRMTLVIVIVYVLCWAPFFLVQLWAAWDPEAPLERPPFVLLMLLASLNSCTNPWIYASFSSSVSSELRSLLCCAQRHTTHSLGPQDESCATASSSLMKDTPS
In words: V2 Receptor Binding Assay ([3H]-Arg-vasopressin, rat kidney plasma membrane). To be noted: 4° C., pH 8.0.
Protocol: Chem., 253, 3211 (1978)], the plasma membrane (100000 dpm, 4×10^-10M) of [^3 H]-Arg-vasopressin and a test compound (0.6 mg, 10^-10 -10^-5 M) are incubated at 4° C. for 3 hours in 100 mM Tris-HCl buffer pH: 8.0 (250 μl ) containing 5 mM MgCl2, 1 mM EDTA and 0.1 % BSA. After incubation, the mixture is filtered using the glass filter (GF/F) so as to separate the membrane preparation combining with vasopressin and then washed twice with the buffer (5 ml). This glass filter is taken out and mixed with liquid scintillation cocktail. The amount of [^3 H]-vasopressin combining with the membrane is measured by liquid scintillation counter and the rate of the inhibitory effect of the test compound is estimated according to the following equation. [formula]
as §1, §2
B1 : The amount of [3H-vasopressin combining with the membrane in the presence of the excess amount of vasopressin (10^-6 M).
as §3
Consider `CN(C)C1CCCN(C(=O)c2ccc(NC(=O)Cc3ccccc3F)cc2)c2ccccc21` (stereo not shown) [Test Compound 5, 5-Dimethylamino-1-{4-[2-(2-fluorophenyl)acetylamino]benzoyl}-2,3,4,5-tetrahydro-1H-benzazepine], for which the concentration for half-maximal inhibition (IC50) was determined as 59 nM.

`CN(C)C1CCCN(C(=O)c2ccc(NC(=O)Cc3c(Cl)cccc3Cl)cc2)c2ccccc21` (stereo not shown) [Test Compound 6, 5-Dimethylamino-1-{4-[2-(2,6-dichlorophenyl)acetylamino]benzoyl}-2,3,4,5-tetrahydro-1H-benzazepine] returned an IC50 of 24 nM.

In turn, `Cc1ccccc1C(=O)Nc1ccc(C(=O)N2CCCC(CC(=O)NCC(N)=O)c3cc(Cl)ccc32)c(C)c1` (stereo not shown) [Test Compound 62, 5-(Carbamoylmethylaminocarbonylmethyl)-7-chloro-1-[2-methyl-4-(2-methylbenzoylamino)benzoyl]-2,3,4,5-tetrahydro-1H-benzazepine] registered an IC50 of 3 nM.

Molecule `Cc1ccccc1CC(=O)Nc1ccc(C(=O)N2CCCC(O)c3cc(Cl)ccc32)c(C)c1` (stereo not shown) [Test Compound 16, 5-Hydroxy-7-chloro-1-{2-methyl-4-[2-(2-methylphenyl)acetylamino]benzoyl}-2,3,4,5-tetrahydro-1H-benzazepine] registered an IC50 of 4 nM.

In the case of `CSCC[C@H](N)C(=O)OC1CCCN(C(=O)c2ccc(NC(=O)c3ccccc3C)cc2C)c2ccc(Cl)cc21` (single isomer, unassigned) [Test Compound 14, 5-(L-Methionyloxy)-7-chloro-1-[2-methyl-4-(2-methylbenzoylamino)benzoyl]-2,3,4,5-tetrahydro-1H-benzazepine hydrochloride], the IC50 came to 11 nM. Take `COc1cc(NC(=O)Cc2ccccc2C)ccc1C(=O)N1CCCC(O)c2cc(Cl)ccc21` (stereo not shown) [Test Compound 18, 5-Hydroxy-7-chloro-1-{2-methoxy-4-[2-(2-methylphenyl)acetylamino]benzoyl}-2,3,4,5-tetrahydro-1H-benzazepine]: the IC50 stood at 4 nM. Same read-out and setting: then `COc1cc(NC(=O)c2ccccc2C)ccc1C(=O)N1CCCC(OCCN2CCCC2)c2cc(Cl)ccc21` (stereo not shown) [Test Compound 34, 5-[2-(1-Pyrrolidinyl)ethoxy]-7-chloro-1-[2-methoxy-4-(2-methylbenzoylamino)benzoyl]-2,3,4,5-tetrahydro-1H-benzazepine hydrochloride], with 6 nM; and `Cc1ccccc1C(=O)Nc1ccc(C(=O)N2CCCC(CC(=O)N3CCN(C)CC3)c3cc(Cl)ccc32)c(C)c1` (stereo not shown) [Test Compound 41, 5-[(4-Methyl-1-piperazinyl)carbonylmethyl]-7-chloro-1-[2-methyl-4-(2-methylbenzoylamino]benzoyl]-2,3,4,5-tetrahydro-1H-benzazepine], with 13 nM; and `CC(=O)N1CCN(CCC2CCCN(C(=O)c3ccc(NC(=O)c4ccccc4C)cc3C)c3ccc(Cl)cc32)CC1` (stereo not shown) [Test Compound 53, 5-[2-(1-Acetyl-1-piperazinyl)ethyl]-7-chloro-1-[2-methyl-4-(2-methylbenzoylamino)benzoyl]-2,3,4,5-tetrahydro-1H-benzazepine hydrochloride], with 29 nM. Still for that read-out and setting: then `Cc1ccccc1C(=O)Nc1ccc(C(=O)N2CCCC(OCCCn3ccnc3)c3cc(F)ccc32)c(C)c1` (stereo not shown) [Test Compound 36, 5-[3-(1-Imidazolyl)propoxy]-7-fluoro-1-[2-methyl-4-(2-methylbenzoylamino)benzoyl]-2,3,4,5-tetrahydro-1H-benzazepine], with 7.6 nM; and `Cc1ccccc1C(=O)Nc1ccc(C(=O)N2CCCC(OCC(=O)NC3CCN(C)CC3)c3cc(Cl)ccc32)c(C)c1` (stereo not shown) [Test Compound 59, 5-[(1-Methyl-4-piperidinyl)aminocarbonyl-methoxy]-7-chloro-1-[2-methyl-4-(2-methylbenzoylamino)-benzoyl]-2,3,4,5-tetrahydro-1H-benzazepine], with 9 nM; and `COc1cc(NC(=O)c2ccccc2OCCCCN2CCN(C(C)=O)CC2)ccc1C(=O)N1CCCCc2cc(Cl)ccc21` [Test Compound 49], with 52 nM. On to `Cc1ccccc1C(=O)Nc1ccc(C(=O)N2CCCC(OC(=O)[C@H](C)N)c3ccccc32)c(Cl)c1` (stereo partly drawn) [Test Compound 9, 5-(L-Alanyloxy)-1-[2-chloro-4-(2-methylbenzoylamino)benzoyl]-2,3,4,5-tetrahydro-1H-benzazepine hydrochloride], for which the IC50 is 17 nM. Same read-out and setting: then `Cc1ccccc1C(=O)Nc1ccc(C(=O)N2CCCC(OCC(=O)NCC(=O)O)c3cc(F)ccc32)c(Cl)c1` (stereo not shown) [Test Compound 22, 5-Carboxymethylaminocarbonylmethoxy-7-fluoro-1-[2-chloro-4-(2-methylbenzoylamino)benzoyl]-2,3,4,5-tetrahydro-1H-benzazepine], with 18 nM.

On to `CC(=O)Oc1ccc2c(c1)C(N(C)C)CCCN2C(=O)c1ccc(NC(=O)c2ccccc2Cl)cc1Cl` (stereo not shown) [Test Compound 11], for which the IC50 came out at 110 nM. Regarding `COc1cc(NC(=O)c2ccccc2Cl)ccc1C(=O)N1CCCC(CC(=O)O)c2cc(Cl)ccc21` (stereo not shown) [Test Compound 31, 5-Carboxymethyl-7-chloro-1-[2-methoxy-4-(2-chlorobenzoylamino)benzoyl]-2,3,4,5-tetrahydro-1H-benzazepine], the IC50 stood at 19 nM. `Cc1ccccc1C(=O)Nc1ccc(C(=O)N2CCCC(OC(=O)[C@@H]3CCCN3)c3ccccc32)c(Cl)c1` (single isomer, unassigned) [Test Compound 12, 5-(L-Prolyloxy)-1-[2-chloro-4-(2-methylbenzoylamino)benzoyl]-2,3,4,5-tetrahydro-1H-benzazepine hydrochloride] gave an IC50 of 9 nM. The same measure, in the same setting: then `CSCC[C@H](N)C(=O)OC1CCCN(C(=O)c2ccc(NC(=O)c3ccccc3C)cc2Cl)c2ccccc21` (single isomer, unassigned) [Test Compound 10, 5-(L-Methionyloxy)-1-[2-chloro-4-(2-methylbenzoylamino)benzoyl]-2,3,4,5-tetrahydro-1H-benzazepine hydrochloride], with 83 nM; and `CN(C)C1CCCN(C(=O)c2ccc(NC(=O)Cc3ccccc3[N+](=O)[O-])cc2)c2ccccc21` (stereo not shown) [Test Compound 7, 5-Dimethylamino-1-{4-[2-(2-nitrophenyl)acetylamino]benzoyl}-2,3,4,5-tetrahydro-1H-benzazepine], with 140 nM; and `Cc1ccccc1C(=O)Nc1ccc(C(=O)N2CCCC(OCCCN3CCOCC3)c3cc(F)ccc32)c(C)c1` (stereo not shown) [Test Compound 35, 5-(3-Morpholinopropoxy)-7-fluoro-1-[2-methyl-4-(2-methylbenzoylamino)benzoyl]-2,3,4,5-tetrahydro-1H-benzazepine], with 6.2 nM.

`O=C(Nc1ccc(C(=O)N2CCCC(O)(CO)c3cc(O)ccc32)c(Cl)c1)c1ccccc1Cl` (stereo not shown) [Test Compound 19, 5,7-Dihydroxy-5-hydroxymethyl-1-[2-chloro-4-(2-chlorobenzoylamino)benzoyl]-2,3,4,5-tetrahydro-1H-benzazepine]: the IC50 turned out to be 2800 nM. `CN(C)C1CCCN(C(=O)c2ccc(NC(=O)c3ccccc3Cl)cc2Cl)c2ccc(O)cc21` (stereo not shown) [Test Compound 8, 5-Dimethylamino-7-hydroxy-1-[2-chloro-4-(2-chlorobenzoylamino)benzoyl]-2,3,4,5-tetrahydro-1H-benzazepine] yielded an IC50 of 250 nM. Molecule `CN(C)C(=O)COc1ccc2c(c1)C(N(C)C)CCCN2C(=O)c1ccc(NC(=O)c2ccccc2Cl)cc1Cl` (stereo not shown) [Test Compound 20, 5-Dimethylamino-7-dimethylaminocarbonylmethoxy-1-[2-chloro-4-(2-chlorobenzoylamino)benzoyl]-2,3,4,5 tetrahydro-1H-benzazepine] came in with an IC50 of 5600 nM. As for `COc1ccccc1CC(=O)Nc1ccc(C(=O)N2CCCC(N(C)C)c3ccccc32)cc1` (stereo not shown) [Test Compound 4, 5-Dimethylamino-1-{4-[2-(2-methoxyphenyl)acetylamino]benzoyl}-2,3,4,5-tetrahydro-1H-benzazepine], the IC50 is 61 nM.

In turn, `COC(=O)[C@@H]1CCCN1C(=O)COC1CCCN(C(=O)c2ccc(NC(=O)c3ccccc3C)cc2Cl)c2ccc(F)cc21` (stereo partly drawn) [Test Compound 23, 5-[(2-β-Methoxycarbonyl)-1-pyrrolidinylcarbonylmethoxy]-7-fluoro-1-[2-chloro-4-(2-methylbenzoylamino)benzoyl]-2,3,4,5-tetrahydro-1H-benzazepine] showed an IC50 of 11 nM. `CN(C)C1CCCN(C(=O)c2ccc(NC(=O)Cc3ccccc3Cl)cc2)c2ccccc21` (stereo not shown) [Test Compound 3, 5-Dimethylamino-1-{4-[2-(2-chlorophenyl)acetylamino]benzoyl}-2,3,4,5-tetrahydro-1H-benzazepine] yielded an IC50 of 61 nM. `Cc1ccccc1C(=O)Nc1ccc(C(=O)N2CCCC(OCC(=O)NC3CCNCC3)c3cc(Cl)ccc32)c(C)c1` (stereo not shown) [Test Compound 57, 7-Chloro-5-[(4-piperidinyl)aminocarbonylmethoxy]-1-[2-methyl-4-(2-methylbenzoylamino)benzoyl]-2,3,4,5-tetrahydro-1H-benzazepine hydrochloride] came in with an IC50 of 9 nM. Same read-out and setting: then `CCOC(=O)CNC(=O)COC1CCCN(C(=O)c2ccc(NC(=O)c3ccccc3C)cc2Cl)c2ccc(F)cc21` (stereo not shown) [Test Compound 21, 5-Ethoxycarbonylmethylaminocarbonylmethoxy-7-fluoro-1-[2-chloro-4-(2-methylbenzoylamino)benzoyl]-2,3,4,5-tetrahydro-1H-benzazepine], with 6 nM.

For the origin of these results see US5244898A, “Benzoheterocyclic compounds” (Otsuka Pharmaceutical Co., Ltd., priority 1991, dated 1993).
